Here are results for eleven molecules from ChEMBL document CHEMBL1201862, “PubChem BioAssay data set” (2004).

Among the test systems are SK-MEL-28; 786-0; MDA-MB-435; SF-539; A498; BT-549; NCI-H522; MOLT-4; SF-268; HL-60; OVCAR-5; CCRF-CEM; CAKI-1; OVCAR-4; NCI-H23; OVCAR-8; HCT-116; K562; MCF7; SNB-75.
Test in all cases: NCI tumour cell line growth inhibition, 48 h

Structures are written as SMILES.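 48-hour exposure; five concentrations; linearly interpolated endpoints. GI50 is the concentration that inhibits growth by half.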 Active and inactive are the calls of the source. Rule as the data show it: active = GI50 up to about 1.1 µM and inactive = higher. Some results are limits rather than exact numbers.

For `C/C=C(\C)C(=O)O[C@@H]1CC(C)(C)CC2C3=CCC4[C@]56CC[C@](O)(OC5)C(C)(C)C6CC[C@@]4(C)C3(C)CC[C@]21C(=O)O` (stereo partly drawn), the GI50 with SK-MEL-28, in the assay with 786-0, in the assay with MDA-MB-435, in the assay with SF-539, in the assay on A498 and in the assay on BT-549 was > 100 µM (inactive) throughout. The GI50 in the assay on NCI-H522 was > 100 µM (inactive); with MOLT-4 it was > 100 µM (inactive); in the assay on SF-268 it was > 100 µM (inactive); with HL-60, 28.4 µM (inactive); in the assay with OVCAR-5 it was > 100 µM (inactive); in the assay on CCRF-CEM, > 100 µM (inactive). Further, the GI50 is > 100 µM (inactive) in the assay with CAKI-1; > 100 µM (inactive) in the assay with OVCAR-4; > 100 µM (inactive) in the assay with NCI-H23; > 100 µM (inactive) in the assay on OVCAR-8; 79.6 µM (inactive) in the assay with HCT-116; > 100 µM (inactive) in the assay with K562. Besides, the GI50 in the assay with MCF7 was > 100 µM (inactive).
With `CCCCOC(=O)C(=O)C(CC(C(=O)Cc1ccccc1)c1ccccc1)C(=O)C=C(C)C` (stereo not drawn), the GI50 in the assay with SK-MEL-28, with 786-0, in the assay on MDA-MB-435, in the assay with SF-539, in the assay on BT-549 and with NCI-H522 was > 100 µM (inactive) in each case. Further, the GI50 with MOLT-4 is 83.9 µM (inactive); with SF-268 it was > 100 µM (inactive); in the assay on HL-60 it was 50.1 µM (inactive); with OVCAR-5, > 100 µM (inactive); in the assay with CCRF-CEM, 76.6 µM (inactive); with CAKI-1 it was > 100 µM (inactive). Moreover, the GI50 in the assay with SNB-75, in the assay with OVCAR-4, in the assay with NCI-H23, with OVCAR-8, in the assay on HCT-116 and in the assay on MCF7 was > 100 µM (inactive) each time.
Take `O=C(c1ccc(Cl)cc1)N(C(=S)OCc1ccccn1)c1ccccc1`: the GI50 with SK-MEL-28 is > 100 µM (inactive); in the assay with 786-0, 83.2 µM (inactive); in the assay with MDA-MB-435, > 100 µM (inactive); in the assay with SF-539, 33 µM (inactive); in the assay on A498 it was > 100 µM (inactive); with BT-549, 60.7 µM (inactive). Further, the GI50 in the assay on MOLT-4 is 41.6 µM (inactive); in the assay with SF-268 it was > 100 µM (inactive); in the assay with HL-60, 28.8 µM (inactive); with OVCAR-5, 73.6 µM (inactive); with CCRF-CEM it was 43.6 µM (inactive); in the assay with CAKI-1, 71.8 µM (inactive). Besides, the GI50 is 67.6 µM (inactive) with NCI-H23; > 100 µM (inactive) with OVCAR-8; 46.6 µM (inactive) in the assay on HCT-116; 48.1 µM (inactive) in the assay with K562; 46.3 µM (inactive) in the assay on MCF7.
Consider `O=C(O)CNC(=O)c1ccc2cc(C(=O)N3CC(CCl)c4ccc([N+](=O)[O-])cc43)[nH]c2c1` (stereo not drawn), for which the GI50 in the assay on 786-0, in the assay with MDA-MB-435, with SF-539, with BT-549, in the assay on NCI-H522 and in the assay on MOLT-4 was > 100 µM (inactive) in each case. The GI50 with SF-268, in the assay on HL-60, in the assay on OVCAR-5, in the assay with CCRF-CEM, in the assay with CAKI-1 and with SNB-75 was > 100 µM (inactive) throughout. The GI50 in the assay on OVCAR-4, in the assay with NCI-H23, in the assay on OVCAR-8, in the assay with HCT-116 and in the assay on MCF7 was > 100 µM (inactive) throughout.
In the case of `O=C(c1ccc(Cl)cc1Cl)N(C(=O)N1CCC(c2ccccc2)CC1)c1ccccc1`, the GI50 is > 100 µM (inactive) with SK-MEL-28; > 100 µM (inactive) in the assay with 786-0; 55 µM (inactive) in the assay with MDA-MB-435; > 100 µM (inactive) with SF-539; 97.7 µM (inactive) in the assay with A498; > 100 µM (inactive) in the assay on BT-549. Moreover, the GI50 is 17.8 µM (inactive) with MOLT-4; > 100 µM (inactive) in the assay with OVCAR-5; 13.8 µM (inactive) in the assay on CCRF-CEM; > 100 µM (inactive) with CAKI-1; > 100 µM (inactive) in the assay with SNB-75; > 100 µM (inactive) in the assay on NCI-H23. Further, the GI50 in the assay with OVCAR-8 was > 100 µM (inactive); in the assay with HCT-116, 49.4 µM (inactive); in the assay on K562, 34.4 µM (inactive); in the assay on MCF7 it was 72.4 µM (inactive).
As to `CC(=O)N1C=Cc2c(c(C)c3c([nH]c4ccccc43)c2C)C1`, the GI50 with SK-MEL-28 was 15.3 µM (inactive); with 786-0, 2.41 µM (inactive); with MDA-MB-435, 13 µM (inactive); with SF-539 it was 5.27 µM (inactive); with A498 it was 14.8 µM (inactive); in the assay with BT-549, 3.33 µM (inactive). Moreover, the GI50 was 10.4 µM (inactive) in the assay on NCI-H522; 13.1 µM (inactive) in the assay on MOLT-4; 7.4 µM (inactive) in the assay with SF-268; 23.1 µM (inactive) with HL-60; 9.25 µM (inactive) with OVCAR-5; 12.8 µM (inactive) in the assay on CCRF-CEM. The GI50 in the assay with CAKI-1 was 10.1 µM (inactive); in the assay with OVCAR-4, 2.13 µM (inactive); in the assay on NCI-H23 it was 5.92 µM (inactive); in the assay on OVCAR-8, 6.03 µM (inactive); in the assay with HCT-116 it was 1.53 µM (inactive); in the assay on K562, > 100 µM (inactive). Moreover, in the assay on MCF7, the GI50 was 2.72 µM (inactive).
Take `O=C(O)c1ccccc1C(=O)OCC1CCCN2CCCCC12` (stereo not drawn): the GI50 in the assay with SK-MEL-28, with 786-0, with MDA-MB-435, in the assay on SF-539, in the assay on A498 and in the assay with BT-549 was > 100 µM (inactive) each time. The GI50 with MOLT-4, in the assay on SF-268, in the assay on OVCAR-5, in the assay on CCRF-CEM, in the assay on CAKI-1 and with SNB-75 was > 100 µM (inactive) throughout. In addition, the GI50 in the assay with OVCAR-4, in the assay on NCI-H23, in the assay on OVCAR-8, in the assay with HCT-116, in the assay on K562 and with MCF7 was > 100 µM (inactive) throughout.
For `CCCCCCSC[C@H](OC(C)=O)[C@@H](OC(C)=O)[C@@H](OC(C)=O)[C@@H](COC(C)=O)OC(C)=O`, the GI50 in the assay with SK-MEL-28, with 786-0, in the assay on MDA-MB-435, with SF-539, in the assay on A498 and in the assay on BT-549 was > 100 µM (inactive) each time. The GI50 is 26.9 µM (inactive) with MOLT-4; > 100 µM (inactive) in the assay with SF-268; 33.6 µM (inactive) in the assay on HL-60; > 100 µM (inactive) with OVCAR-5; 43.6 µM (inactive) in the assay with CCRF-CEM; > 100 µM (inactive) in the assay with CAKI-1. Further, the GI50 was > 100 µM (inactive) in the assay with SNB-75; > 100 µM (inactive) in the assay on OVCAR-4; > 100 µM (inactive) with NCI-H23; > 100 µM (inactive) in the assay with OVCAR-8; 49.9 µM (inactive) with HCT-116; 43.9 µM (inactive) in the assay with K562. Further, in the assay with MCF7, the GI50 is 85.5 µM (inactive).
Consider `COC(=O)c1c(C)nc(C)c(NO)c1-c1ccccc1C(F)(F)F`, for which the GI50 in the assay on SK-MEL-28 was 20.4 µM (inactive); with 786-0, 16.4 µM (inactive); with MDA-MB-435, 19.6 µM (inactive); in the assay on SF-539, 16 µM (inactive); with A498, > 100 µM (inactive); with BT-549 it was 16.7 µM (inactive). The GI50 in the assay on NCI-H522 is 17.2 µM (inactive); in the assay on MOLT-4, 26.1 µM (inactive); in the assay on SF-268, 41.4 µM (inactive); in the assay with HL-60, 5.41 µM (inactive); in the assay with OVCAR-5 it was 31.8 µM (inactive); with CCRF-CEM, 29.2 µM (inactive). Further, the GI50 with CAKI-1 was 16.2 µM (inactive); with OVCAR-4, 20 µM (inactive); in the assay with NCI-H23 it was 35.6 µM (inactive); with OVCAR-8, 18.5 µM (inactive); in the assay on HCT-116, 16.3 µM (inactive); in the assay with K562 it was 28.3 µM (inactive). Also, the GI50 with MCF7 is 19.2 µM (inactive).
Consider `COc1cc(C2c3cc4c(cc3OC(Nc3ccccc3)C2C)OCO4)cc(OC)c1O` (stereo not drawn), for which the GI50 is 5.57 µM (inactive) in the assay on SK-MEL-28; 7.5 µM (inactive) with 786-0; 0.394 µM (active) with MDA-MB-435; 2.84 µM (inactive) with SF-539; 11.5 µM (inactive) with BT-549; 2.35 µM (inactive) in the assay on NCI-H522. The GI50 in the assay with MOLT-4 is 0.836 µM (active); in the assay with SF-268, 7.48 µM (inactive); in the assay with HL-60, 1.92 µM (inactive); in the assay on OVCAR-5, 7.96 µM (inactive); in the assay with CAKI-1, 8.39 µM (inactive); in the assay with SNB-75, 1.63 µM (inactive). Also, the GI50 in the assay on OVCAR-4 was 11.8 µM (inactive); in the assay with NCI-H23, 7.03 µM (inactive); in the assay on OVCAR-8, 4.75 µM (inactive); with HCT-116 it was 3.93 µM (inactive); with K562 it was 1.97 µM (inactive); in the assay with MCF7, 4.47 µM (inactive).
In the case of `COc1ccccc1/C=C1/Sc2scc(CC(=O)Nc3ccccc3)[n+]2C1=O`, the GI50 in the assay on SK-MEL-28 is 22.4 µM (inactive); in the assay with 786-0, 28.6 µM (inactive); in the assay with MDA-MB-435, 28.4 µM (inactive); in the assay with SF-539 it was 36.3 µM (inactive); in the assay on BT-549, 15.3 µM (inactive); in the assay on NCI-H522 it was 20.3 µM (inactive). The GI50 in the assay with MOLT-4 was 17.2 µM (inactive); in the assay on SF-268, 47.6 µM (inactive); in the assay on HL-60, 15 µM (inactive); in the assay with OVCAR-5 it was 47 µM (inactive); in the assay with CCRF-CEM it was 17.7 µM (inactive); in the assay on CAKI-1 it was 53 µM (inactive). In addition, the GI50 is 26.9 µM (inactive) in the assay on SNB-75; 21 µM (inactive) with OVCAR-4; 28.6 µM (inactive) in the assay with NCI-H23; 31.8 µM (inactive) in the assay on OVCAR-8; 24.6 µM (inactive) with HCT-116; 31.4 µM (inactive) in the assay with MCF7.
